± gives the expanded uncertainty stated by the source.
Columns and labels:
[1] = xn = mol fraction of the nth substance listed; conditions: 101 kPa, Liquid; for speed of sound: Sing-around technique in a fixed-path interferometer; for mass density: Vibrating tube method
[2] = refractive index (Na D-line) (dimensionless); xn = mol fraction of the nth substance listed; conditions: 101 kPa, Liquid, Standard Abbe refractometry

CCCCn1cc[n+](C)c1.O=S(=O)([O-])C(F)(F)F [1-butyl-3-methylimidazolium trifluoromethanesulfonate] + O
Conditions	mass density, 288.15 K [kg/m3]	mass density, 298.15 K [kg/m3]	mass density, 308.15 K [kg/m3]	refractive index, 288.15 K	refractive index, 298.15 K	refractive index, 308.15 K	speed of sound, 288.15 K [m/s]	speed of sound, 298.15 K [m/s]	speed of sound, 308.15 K [m/s]
[1], x2 = 0	1307.5 ± 0.63	1299.55 ± 0.62	1291.62 ± 0.61	–	–	–	1414.3 ± 1.4	1391.4 ± 1.4	1369.1 ± 1.4
[1], x2 = 0.1348	1303.64 ± 0.53	1295.68 ± 0.52	1287.74 ± 0.51	–	–	–	1419.7 ± 1.3	1396.7 ± 1.3	1374.8 ± 1.3
[1], x2 = 0.2028	1301.3 ± 0.48	1293.3 ± 0.47	1285.33 ± 0.47	–	–	–	1422.9 ± 1.2	1400.2 ± 1.2	1378.1 ± 1.2
[1], x2 = 0.2056	1301.2 ± 0.48	1293.22 ± 0.47	1285.23 ± 0.46	–	–	–	1423.2 ± 1.2	1400.9 ± 1.2	1379.4 ± 1.2
[1], x2 = 0.3083	1296.7 ± 0.41	1288.66 ± 0.41	1280.65 ± 0.4	–	–	–	1429.3 ± 1.2	1406.7 ± 1.2	1384.6 ± 1.2
[1], x2 = 0.4985	1284.57 ± 0.31	1276.45 ± 0.31	1268.32 ± 0.31	–	–	–	1445 ± 1.1	1422.8 ± 1.1	1400.9 ± 1.1
[1], x2 = 0.6062	1273.42 ± 0.27	1265.25 ± 0.26	1257.08 ± 0.26	–	–	–	1458 ± 1.1	1436.4 ± 1.1	1414.8 ± 1
[1], x2 = 0.7015	1258.59 ± 0.23	1250.44 ± 0.23	1242.22 ± 0.23	–	–	–	1473.8 ± 1	1453.1 ± 1	1432 ± 1
[1], x2 = 0.8064	1231.3 ± 0.2	1223.33 ± 0.2	1215.23 ± 0.21	–	–	–	1496.3 ± 1	1478.8 ± 1	1460 ± 1
[1], x2 = 0.8998	1180.1 ± 0.16	1172.98 ± 0.16	1165.56 ± 0.16	–	–	–	1523.9 ± 1	1513.4 ± 1	1500.5 ± 1
[1], x2 = 0.9309	1149.84 ± 0.15	1143.39 ± 0.15	1136.56 ± 0.15	–	–	–	1533.1 ± 1	1527.6 ± 1	1519.2 ± 1
[1], x2 = 0.9548	1116.26 ± 0.15	1110.62 ± 0.15	1104.51 ± 0.16	–	–	–	1540 ± 1	1540.1 ± 1	1536.7 ± 1
[2], x2 = 0	–	–	–	1.44032 ± 0.00053	1.43755 ± 0.00053	1.43475 ± 0.00053	–	–	–
[2], x2 = 0.1348	–	–	–	1.43903 ± 0.00051	1.43626 ± 0.00052	1.43343 ± 0.00052	–	–	–
[2], x2 = 0.2028	–	–	–	1.43815 ± 0.00051	1.43535 ± 0.00051	1.43259 ± 0.00051	–	–	–
[2], x2 = 0.2056	–	–	–	1.4381 ± 0.00051	1.4353 ± 0.00051	1.43253 ± 0.00051	–	–	–
[2], x2 = 0.3083	–	–	–	1.43654 ± 0.00049	1.43373 ± 0.00051	1.4309 ± 0.00053	–	–	–
[2], x2 = 0.4985	–	–	–	1.43224 ± 0.00047	1.4294 ± 0.0005	1.42655 ± 0.00054	–	–	–
[2], x2 = 0.6062	–	–	–	1.42835 ± 0.00047	1.42546 ± 0.0005	1.42268 ± 0.00053	–	–	–
[2], x2 = 0.7015	–	–	–	1.42301 ± 0.00044	1.42021 ± 0.00049	1.41759 ± 0.00056	–	–	–
[2], x2 = 0.8064	–	–	–	1.41332 ± 0.00041	1.41072 ± 0.00048	1.40803 ± 0.0007	–	–	–
[2], x2 = 0.8998	–	–	–	1.39564 ± 0.0004	1.39323 ± 0.00046	1.39103 ± 0.00059	–	–	–
[2], x2 = 0.9309	–	–	–	1.38516 ± 0.00041	1.3829 ± 0.00045	1.38091 ± 0.00052	–	–	–
[2], x2 = 0.9548	–	–	–	1.37365 ± 0.00045	1.37157 ± 0.00045	1.36969 ± 0.0007	–	–	–

CCCC[n+]1cccc(C)c1.O=S(=O)([O-])C(F)(F)F [1-butyl-3-methylpyridinium trifluoromethanesulfonate] + O
Conditions	mass density, 288.15 K [kg/m3]	mass density, 298.15 K [kg/m3]	mass density, 308.15 K [kg/m3]	refractive index, 288.15 K	refractive index, 298.15 K	refractive index, 308.15 K	speed of sound, 288.15 K [m/s]	speed of sound, 298.15 K [m/s]	speed of sound, 308.15 K [m/s]
[1], x2 = 0	1287.07 ± 0.61	1279.41 ± 0.6	1271.8 ± 0.59	–	–	–	1436.1 ± 1.4	1412.3 ± 1.4	1389.6 ± 1.4
[1], x2 = 0.0794	1285.23 ± 0.55	1277.62 ± 0.54	1269.98 ± 0.53	–	–	–	1439.2 ± 1.3	1415.5 ± 1.3	1392.5 ± 1.3
[1], x2 = 0.1517	1283.28 ± 0.5	1275.63 ± 0.49	1267.96 ± 0.48	–	–	–	1442.3 ± 1.3	1418.7 ± 1.3	1395.8 ± 1.3
[1], x2 = 0.2502	1279.99 ± 0.43	1272.28 ± 0.43	1264.58 ± 0.42	–	–	–	1447.7 ± 1.2	1424.3 ± 1.2	1401.5 ± 1.2
[1], x2 = 0.3515	1275.76 ± 0.37	1268 ± 0.37	1260.24 ± 0.36	–	–	–	1454.3 ± 1.2	1431.2 ± 1.2	1408.5 ± 1.2
[1], x2 = 0.4528	1270.21 ± 0.32	1262.4 ± 0.32	1254.58 ± 0.31	–	–	–	1463 ± 1.1	1440 ± 1.1	1417.4 ± 1.1
[1], x2 = 0.5628	1261.9 ± 0.27	1254.01 ± 0.27	1246.08 ± 0.27	–	–	–	1475.6 ± 1.1	1452.9 ± 1.1	1430.3 ± 1.1
[1], x2 = 0.6561	1251.55 ± 0.24	1243.59 ± 0.24	1235.57 ± 0.23	–	–	–	1489.9 ± 1.1	1467.6 ± 1	1445.3 ± 1
[1], x2 = 0.7494	1235.48 ± 0.21	1227.52 ± 0.21	1219.46 ± 0.21	–	–	–	1508.6 ± 1	1487.4 ± 1	1465.8 ± 1
[1], x2 = 0.8383	1208.29 ± 0.18	1200.56 ± 0.18	1192.69 ± 0.19	–	–	–	1530.4 ± 1	1512.5 ± 1	1493.4 ± 1
[1], x2 = 0.9201	1155.76 ± 0.15	1149.07 ± 0.14	1142.04 ± 0.16	–	–	–	1548.9 ± 1	1540.1 ± 1	1528.6 ± 1
[1], x2 = 0.9603	1103.57 ± 0.14	1098.18 ± 0.12	1092.3 ± 0.16	–	–	–	1553.2 ± 1	1553.5 ± 1	1550.4 ± 1
[2], x2 = 0	–	–	–	1.46446 ± 0.00053	1.46155 ± 0.00053	1.45868 ± 0.00053	–	–	–
[2], x2 = 0.0794	–	–	–	1.46358 ± 0.00052	1.46073 ± 0.00053	1.45784 ± 0.00053	–	–	–
[2], x2 = 0.1517	–	–	–	1.46266 ± 0.00052	1.45982 ± 0.00052	1.45694 ± 0.00053	–	–	–
[2], x2 = 0.2502	–	–	–	1.46111 ± 0.00051	1.45822 ± 0.00052	1.45535 ± 0.00052	–	–	–
[2], x2 = 0.3515	–	–	–	1.4591 ± 0.0005	1.45623 ± 0.00051	1.45331 ± 0.00053	–	–	–
[2], x2 = 0.4528	–	–	–	1.45651 ± 0.00049	1.45363 ± 0.00051	1.45069 ± 0.00053	–	–	–
[2], x2 = 0.5628	–	–	–	1.45257 ± 0.00047	1.44968 ± 0.00051	1.44673 ± 0.00054	–	–	–
[2], x2 = 0.6561	–	–	–	1.4477 ± 0.00045	1.44482 ± 0.0005	1.44183 ± 0.00056	–	–	–
[2], x2 = 0.7494	–	–	–	1.44008 ± 0.00042	1.43724 ± 0.0005	1.43429 ± 0.00062	–	–	–
[2], x2 = 0.8383	–	–	–	1.42747 ± 0.00043	1.42474 ± 0.00049	1.42192 ± 0.0008	–	–	–
[2], x2 = 0.9201	–	–	–	1.40357 ± 0.00049	1.40118 ± 0.00047	1.39863 ± 0.00085	–	–	–
[2], x2 = 0.9603	–	–	–	1.37998 ± 0.00069	1.37782 ± 0.00046	1.3757 ± 0.001	–	–	–

From the NIST ThermoML archive (doi:10.1021/je201334p)
